Assays:
[1] = target: T1, P2X7 73–79 deletion mutant (hP2X7-2Nβ background) (Homo sapiens, UniProt Q99572, DEL73-79/I21V/M24R/N16P/N25R/Q22R/R20V/S23N/T19I/Y26L); assay: two-electrode voltage clamp, Xenopus oocytes; assay type: cell-based
T1 construct: expressed in transfected cells; host or cells: Xenopus laevis oocytes (cRNA injected)
T1 sequence (Q99572 with tags, fused parts or gaps N16P/T19I/R20V/I21V/Q22R/S23N/M24R/N25R/Y26L/DEL73-79): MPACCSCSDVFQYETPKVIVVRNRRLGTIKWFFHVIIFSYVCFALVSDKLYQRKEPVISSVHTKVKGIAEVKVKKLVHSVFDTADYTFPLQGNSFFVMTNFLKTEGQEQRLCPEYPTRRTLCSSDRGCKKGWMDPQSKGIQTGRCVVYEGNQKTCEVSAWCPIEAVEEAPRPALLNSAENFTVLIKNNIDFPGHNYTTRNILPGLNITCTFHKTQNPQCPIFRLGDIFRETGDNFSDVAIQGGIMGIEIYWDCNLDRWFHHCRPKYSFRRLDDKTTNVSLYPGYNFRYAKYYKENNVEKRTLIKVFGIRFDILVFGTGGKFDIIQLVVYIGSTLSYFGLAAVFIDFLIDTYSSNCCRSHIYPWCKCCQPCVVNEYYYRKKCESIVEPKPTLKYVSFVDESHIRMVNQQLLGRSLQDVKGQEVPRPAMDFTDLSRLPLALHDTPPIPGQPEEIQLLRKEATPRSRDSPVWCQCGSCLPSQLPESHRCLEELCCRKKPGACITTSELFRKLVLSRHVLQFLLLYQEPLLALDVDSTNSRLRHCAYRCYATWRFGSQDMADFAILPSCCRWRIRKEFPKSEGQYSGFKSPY

[2] = target: T2, hP2X7-2Nβ/P2X1 chimera 279–285 (Homo sapiens, UniProt Q99572, DEL279-281/I21V/M24R/N16P/N25R/N284E/Q22R/R20V/S23N/T19I/T282Y/T283E/V285K/Y26L); assay: two-electrode voltage clamp, Xenopus oocytes; assay type: cell-based; settings: 279–285 chimera; relative to P2X7-2Nβ
T2 construct: expressed in transfected cells; host or cells: Xenopus laevis oocytes (cRNA injected)
T2 sequence (Q99572 with tags, fused parts or gaps N16P/T19I/R20V/I21V/Q22R/S23N/M24R/N25R/Y26L/DEL279-281/T282Y/T283E/N284E/V285K): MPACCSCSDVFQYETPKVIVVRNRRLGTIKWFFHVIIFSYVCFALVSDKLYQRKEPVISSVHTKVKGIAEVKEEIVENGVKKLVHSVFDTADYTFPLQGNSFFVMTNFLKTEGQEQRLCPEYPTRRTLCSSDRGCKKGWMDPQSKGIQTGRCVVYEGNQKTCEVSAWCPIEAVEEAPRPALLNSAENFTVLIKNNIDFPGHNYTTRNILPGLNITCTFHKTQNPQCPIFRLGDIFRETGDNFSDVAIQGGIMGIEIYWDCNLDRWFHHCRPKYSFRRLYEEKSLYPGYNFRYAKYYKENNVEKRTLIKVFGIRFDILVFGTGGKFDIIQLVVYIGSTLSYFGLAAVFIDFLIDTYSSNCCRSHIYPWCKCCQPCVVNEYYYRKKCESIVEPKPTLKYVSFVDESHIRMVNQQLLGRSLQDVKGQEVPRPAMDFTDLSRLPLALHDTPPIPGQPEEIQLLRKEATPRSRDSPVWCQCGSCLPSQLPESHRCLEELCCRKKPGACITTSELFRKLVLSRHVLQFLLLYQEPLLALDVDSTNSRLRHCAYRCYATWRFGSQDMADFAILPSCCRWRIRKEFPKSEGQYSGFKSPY
From the text: (§1) The hP2X1R was a gift from Dr Lin-Hua Jiang (University of Leeds, UK) and the hP2X1R cDNA has been described previously. Chimeras were generated by megaprimer-mediated domain swapping. In addition to chimeras, point mutations, deletions and insertions were made using the QuikChange (Stratagene) or Q5 (New England Bioscience) mutagenesis kits. The production of the correct mutations and absence of coding errors was verified by DNA sequencing (Automated ABI Sequencing Service, University of Leicester, UK).
(§2) P2XR constructs were transcribed to produce sense-strand cRNA (mMessage mMachine, Ambion, Austin, TX). Manually defoliculated stage V Xenopus laevis oocytes were injected with 50 nl (50 ng) of cRNA using an Inject + Matic microinjector (J.A. Gaby, InjectMatic, Geneva, Switzerland) and stored at 16 °C in ND96 buffer (in mM, NaCl 96, KCl 2, CaCl2 1.8, MgCl2 1, sodium pyruvate 5, HEPES 5 (pH 7.6) supplemented with 50 µg/ml gentamycin and 50 µg/ml tetracycline). For electrophysiological recordings (3–7 days post-injection) oocytes were bathed in divalent free ND96 buffer (in mM, NaCl 96, KCl 2, sodium pyruvate 5, HEPES 5 and 0.1 flufenamic acid, pH 7.6).
(§3) ATP (sodium salt, Sigma) was applied via a U-tube perfusion system for 3 s at 3–5 minute intervals to allow reproducible responses to be recorded. […] To standardize for any change in ATP sensitivity at mutant receptors antagonists were co-applied with an EC90 concentration of ATP.
(§4) Concentration response curves were normalized to the maximal response and fitted with the Hill equation (variable slope) with GraphPad Prism 6 (Graphpad software, San Diego, CA). […] Individual concentration response curves were generated for individual experiments and statistical analysis was carried out on the data generated. In the figures the inhibition curves are fitted to the mean normalized data. Any significant differences were calculated by one-way analysis of variance, followed by Bonferroni’s test (using GraphPad Prism 6). Data are shown as mean ± SEM.

other P2XR subtypes = settings: cited from earlier work
hP2X7-2Nβ K297G = target: T3, hP2X7-2Nβ K297G (Homo sapiens, UniProt Q99572, I21V/K297G/M24R/N16P/N25R/Q22R/R20V/S23N/T19I/Y26L); assay: two-electrode voltage clamp, Xenopus oocytes; assay type: cell-based; settings: relative to P2X7-2Nβ
T3 construct: expressed in transfected cells; host or cells: Xenopus laevis oocytes (cRNA injection)
T3 sequence (Q99572 1-595 N16P/T19I/R20V/I21V/Q22R/S23N/M24R/N25R/Y26L/K297G): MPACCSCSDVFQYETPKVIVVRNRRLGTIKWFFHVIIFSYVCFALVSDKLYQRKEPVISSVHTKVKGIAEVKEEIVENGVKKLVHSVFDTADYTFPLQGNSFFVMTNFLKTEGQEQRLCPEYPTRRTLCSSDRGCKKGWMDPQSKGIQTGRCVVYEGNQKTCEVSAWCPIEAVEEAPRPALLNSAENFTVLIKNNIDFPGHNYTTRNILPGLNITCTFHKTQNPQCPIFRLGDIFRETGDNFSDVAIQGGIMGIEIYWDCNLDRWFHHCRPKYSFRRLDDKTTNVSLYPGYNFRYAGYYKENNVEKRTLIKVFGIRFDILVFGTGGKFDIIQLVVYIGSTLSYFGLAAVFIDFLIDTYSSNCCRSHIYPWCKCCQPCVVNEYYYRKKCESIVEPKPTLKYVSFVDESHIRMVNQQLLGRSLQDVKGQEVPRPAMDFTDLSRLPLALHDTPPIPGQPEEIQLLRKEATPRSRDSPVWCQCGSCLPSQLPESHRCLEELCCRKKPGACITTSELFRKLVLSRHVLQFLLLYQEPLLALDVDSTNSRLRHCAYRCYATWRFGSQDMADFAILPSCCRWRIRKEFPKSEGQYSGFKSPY
From the text: as §1, §2, §3, §4

SMILES	increase in ATP sensitivity ([1]; 73–79 del, relative to P2X7-2Nβ)	Peak amplitude ([1]; 73–79 delete, maximal ATP)	increase in ATP sensitivity [2]	effect at other P2XR subtypes (other P2XR subtypes)	increase in AZ10606120 sensitivity (hP2X7-2Nβ K297G)
Nc1ncnc2c1ncn2[C@@H]1O[C@H](COP(=O)(O)OP(=O)(O)OP(=O)(O)O)[C@@H](O)[C@H]1O [ATP]	2–3 fold	2.05 ± 0.23 μA	~ 10 fold	–	–
Cl.Cl.O=C(CC12CC3CC(CC(C3)C1)C2)Nc1cccc2nc(NCCNCCO)ccc12 [AZ10606120, N-[2-[[2-[(2-Hydroxyethyl)amino]ethyl]amino]-5-quinolinyl]-2-tricyclo[3.3.1.13,7]dec-1-ylacetamide dihydrochloride]	–	–	–	little or no effect	> 100 fold
